Like-named read-outs stand apart in the source and are kept apart here.
Biological target: T1, KRas G12V (Homo sapiens, UniProt P01116, G12V)
T1 construct: Biotinylated KRas G12V (aa 1-169) loaded with GDP nucleotide; biotin (biotinylated)
Experiment: SOS1-Catalyzed Nucleotide Exchange Assay, KRas G12V (Method 2)
Assay type: biochemical
Conditions: 5 nM KRas G12V (aa 1-169, GDP-loaded), 50 nM SOS1
Method: KRas G12V [Method 2]: Compounds were pre-dispensed via Echo liquid handling (acoustic, touch-free) to generate assay ready plates (ARP). More precisely, a 10-point concentration response curve for each compound was prepared with appropriate top concentration (1 μM, 10 μM, 100 μM). Biotinylated KRas G12V (aa 1-169) loaded with GDP nucleotide and Streptavidin-Europium (SA-EU, Columbia Biosciences) were preincubated in assay buffer (20 mM HEPES pH 7.4, 150 mM NaCl, 5 mM MgCl2, 1 mM DTT, 0.01% Brij-35, 0.3 mg/mL BSA) on ice for 30 min. Separately SOS1 (aa 546-1049) and EDA-GTP-DY647P1 (Jena Bioscience) were preincubated in assay buffer on ice for 30 min. After 30 minutes of incubation for the assay components, 5 μL buffer and 5 μL of KRas G12V-SA-Eu were added to each well of the ARP. After a further 30 min, 5 μL of SOS1-EDA-GTP-D467P1 was added to start the nucleotide exchange reaction. Final concentration in the assay were 5 nM KRas G12V, 50 nM SOS1 (aa 564-1049). The reaction was allowed to proceed for 60-90 minutes after which the plate was read on a plate reader. After normalization of the raw data, the data was fit to a four-parameter logistic curve.

[1] = Method 2, B, read-out: KRas G12V IC50 (nM) (Method 2, B)
[2] = Method 2, A, read-out: KRas G12V IC50 (nM) (Method 2, A)

T1 sequence (P01116 1-169 G12V): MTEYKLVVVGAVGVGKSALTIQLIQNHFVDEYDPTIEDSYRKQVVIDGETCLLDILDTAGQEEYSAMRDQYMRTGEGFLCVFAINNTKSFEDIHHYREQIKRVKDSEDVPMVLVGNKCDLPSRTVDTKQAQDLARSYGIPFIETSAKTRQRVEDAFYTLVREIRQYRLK

IC50 [1]	IC50 [2]	Compound
≤ 100 nM		O=C1CCCCc2c(Cl)cc3[nH]ncc3c2-c2ccc3c(nc(OC[C@@]45CCCN4C[C@H](F)C5)nc3c2F)N2CCCC(CCN1)C2 (single isomer, unassigned) [Compound 202a]
≤ 100 nM		CN(C)CC1(COc2nc3c4ccc(c(F)c4n2)-c2c(c(Cl)cc4[nH]ncc24)CCCCC(=O)NCCC2CCCN3C2)CC1 (single isomer, unassigned) [Compound 197b, 1^6-chloro-2^2-((1-((dimethylamino)methyl)cyclopropyl)methoxy)-2^8-fluoro-1^1H-6-aza-2(7,4)-quinazolina-1(4,5)-indazola-3(1,3)-piperidinacycloundecaphan-7-one]
100 to 1000 nM	100 to 1000 nM	Nc1cc2c3c(c(F)ccc3c1)CCCC(=O)NCCC1CCCN(C1)c1nc(OC[C@@]34CCCN3C[C@H](F)C4)nc3c(F)c-2ncc13 (stereo partly drawn) [Compound 189a, 3^3-amino-2^8,3^7-difluoro-2^2-(((2R,7aS)-2-fluorotetrahydro-1H-pyrrolizin-7a(5H)-yl)methoxy)-8-aza-2(4,7)-pyrido[4,3-d]pyrimidina-1(1,3)-piperidina-3(1,8)-naphthalenacyclodecaphan-7-one]
≤ 100 nM		O=C1CCCCc2c(Cl)cc3[nH]ncc3c2-c2ccc3c(nc(OC[C@@]45CCCN4C[C@H](F)C5)nc3c2F)N2CCOCC(CN1)C2 (stereo partly drawn) [Compound 198a, 3^6-chloro-2^8-fluoro-2^2-(((2R,7aS)-2-fluorotetrahydro-1H-pyrrolizin-7a(5H)-yl)methoxy)-3^1H-9-aza-1(4,6)-oxazepana-2(4,7)-quinazolina-3(4,5)-indazolacyclodecaphan-8-one]
≤ 100 nM		O=C1CCCCc2c(Cl)cc3[nH]ncc3c2-c2ccc3c(nc(OC[C@@]45CCCN4C[C@H](F)C5)nc3c2F)N2CCCC(CCN1)C2 (single isomer, unassigned) [Compound 202b]
10000 to 30000 nM		Nc1cc2c(c(Cl)n1)CCCCC(=O)NCCC1(O)CCCN(C1)c1nc(OC[C@@]34CCCN3C[C@H](F)C4)nc3c(F)c-2c(F)cc13 (single isomer, unassigned) [Compound 188a]
≤ 100 nM		O=C1CCCCc2c(Cl)cc3[nH]ncc3c2-c2c(F)cc3c(nc(OC[C@@]45CCCN4C[C@H](F)C5)nc3c2F)N2CCOCC(CN1)C2 (stereo partly drawn) [Compound 200a, 3^6-chloro-2^6,2^8-difluoro-2^2-(((2R,7aS)-2-fluorotetrahydro-1H-pyrrolizin-7a(5H)-yl)methoxy)-3^1H-9-aza-1(4,6)-oxazepana-2(4,7)-quinazolina-3(4,5)-indazolacyclodecaphan-8-one]
100 to 1000 nM		Nc1cc2c(c(Cl)c1F)CCCCC(=O)NCCC1(O)CCCN(C1)c1nc(OC[C@@]34CCCN3C[C@H](F)C4)nc3c(F)c-2c(F)cc13 (stereo partly drawn) [Compound 183a, 3^5-amino-3^3-chloro-2^6,2^8,3^4-trifluoro-2^2-(((2R,7aS)-2-fluorotetrahydro-1H-pyrrolizin-7a(5H)-yl)methoxy)-1^3-hydroxy-9-aza-2(4,7)-quinazolina-1(1,3)-piperidina-3(1,2)-benzenacycloundecaphan-8-one]

Continued, compound first:

Compound	IC50 [1]	IC50 [2]
CN(C)CC1(COc2nc3c4cnc(c(F)c4n2)-c2cc(N)cc(Cl)c2CCCCC(=O)NCCC2CCCN3C2)CC1 (centres unmarked) [Compound 178, 3^5-amino-3^3-chloro-2^2-((1-((dimethylamino)methyl)cyclopropyl)methoxy)-2^8-fluoro-9-aza-2(4,7)-pyrido[4,3-d]pyrimidina-1(1,3)-piperidina-3(1,2)-benzenacycloundecaphan-8-one]	100 to 1000 nM	
Nc1cc(Cl)c2c(c1)-c1c(Cl)cc3c(nc(OC[C@@]45CCCN4C[C@H](F)C5)nc3c1F)N1CCCC(CCNC(=O)CCCC2)C1 (stereo partly drawn) [Compound 155a, 3^5-amino-2^6,3^3-dichloro-2^8-fluoro-2^2-(((2R,7aS)-2-fluorotetrahydro-1H-pyrrolizin-7a(5H)-yl)methoxy)-9-aza-2(4,7)-quinazolina-1(1,3)-piperidina-3(1,2)-benzenacycloundecaphan-8-one]		1000 to 10000 nM
Nc1cc2c(c(Cl)c1F)CCCCC(=O)NCC1COCCN(C1)c1nc(OC[C@@]34CCCN3C[C@H](F)C4)nc3c(F)c-2ncc13 (stereo partly drawn) [Compound 182a, 3^5-amino-3^3-chloro-2^8,3^4-difluoro-2^2-(((2R,7aS)-2-fluorotetrahydro-1H-pyrrolizin-7a(5H)-yl)methoxy)-9-aza-1(4,6)-oxazepana-2(4,7)-pyrido[4,3-d]pyrimidina-3(1,2)-benzenacyclodecaphan-8-one]	100 to 1000 nM	
Nc1cc2c(cc1F)CCCCC(=O)NCCC1CCCN(C1)c1nc(OC[C@@]34CCCN3C[C@H](F)C4)nc3c(F)c-2ncc13 (single isomer, unassigned) [Compound 159b]	1000 to 10000 nM	
O=C1CCCCc2ccc3[nH]ncc3c2-c2ccc3c(nc(OC[C@@]45CCCN4C[C@H](F)C5)nc3c2F)N2CCCC(CCN1)C2 (stereo partly drawn) [Compound 166a, 2^8-fluoro-2^2-(((2R,7aS)-2-fluorotetrahydro-1H-pyrrolizin-7a(5H)-yl)methoxy)-1^1H-6-aza-2(7,4)-quinazolina-1(4,5)-indazola-3(1,3)-piperidinacycloundecaphan-7-one]	≤ 100 nM	
Nc1cc2c(c(Cl)c1F)CCCCC(=O)NCCC1(O)CCCN(C1)c1nc(OC[C@@]34CCCN3C[C@H](F)C4)nc3c(F)c-2ccc13 (stereo partly drawn) [Compound 180a, 3^5-amino-3^3-chloro-2^8,3^4-difluoro-2^2-(((2R,7aS)-2-fluorotetrahydro-1H-pyrrolizin-7a(5H)-yl)methoxy)-13-hydroxy-9-aza-2(4,7)-quinazolina-1(1,3)-piperidina-3(1,2)-benzenacycloundecaphan-8-one]	100 to 1000 nM	
Nc1cc2c(c(Cl)c1F)CCCCC(=O)NCCC1CCCN(C1)c1nc(OC[C@@]34CCCN3C[C@H](F)C4)nc3c(F)c-2ncc13 (stereo partly drawn) [Compound 172a, 3^5-amino-3^3-chloro-2^8,3^4-difluoro-2^2-(((2R,7aS)-2-fluorotetrahydro-1H-pyrrolizin-7a(5H)-yl)methoxy)-9-aza-2(4,7)-pyrido[4,3-d]pyrimidina-1(1,3)-piperidina-3(1,2)-benzenacycloundecaphan-8-one]	≤ 100 nM	
Nc1cc(Cl)c2c(c1)-c1ncc3c(nc(OCC4(CN5CCOCC5)CC4)nc3c1F)N1CCCC(CCNC(=O)CCCC2)C1 (centres unmarked) [Compound 177, 3^5-amino-3^3-chloro-2^8-fluoro-2^2-((1-(morpholinomethyl)cyclopropyl)methoxy)-9-aza-2(4,7)-pyrido[4,3-d]pyrimidina-1(1,3)-piperidina-3(1,2)-benzenacycloundecaphan-8-one]	100 to 1000 nM	
Nc1cc2c(cc1F)CCCCC(=O)NCCC1(O)CCCN(C1)c1nc(OC[C@@]34CCCN3C[C@H](F)C4)nc3c(F)c-2ncc13 (stereo partly drawn) [Compound 161a, 3^5-amino-2^8,3^4-difluoro-2^2-(((2R,7aS)-2-fluorotetrahydro-1H-pyrrolizin-7a(5H)-yl)methoxy)-1^3-hydroxy-9-aza-2(4,7)-pyrido[4,3-d]pyrimidina-1(1,3)-piperidina-3(1,2)-benzenacycloundecaphan-8-one]		1000 to 10000 nM
O=C1CCCCc2c(Cl)cc(O)cc2-c2ncc3c(nc(OC[C@@]45CCCN4C[C@H](F)C5)nc3c2F)N2CCCC(O)(CCN1)C2 (single isomer, unassigned) [Compound 140c]	≤ 100 nM	
Nc1cc(Cl)c2c(c1)-c1c(Cl)cc3c(nc(OC[C@@]45CCCN4C[C@H](F)C5)nc3c1F)N1CCCC(O)(CCNC(=O)CCCC2)C1 (stereo partly drawn) [Compound 158a, 3^5-amino-2^6,3^3-dichloro-2^8-fluoro-2^2-(((2R,7aS)-2-fluorotetrahydro-1H-pyrrolizin-7a(5H)-yl)methoxy)-1^3-hydroxy-9-aza-2(4,7)-quinazolina-1(1,3)-piperidina-3(1,2)-benzenacycloundecaphan-8-one]		1000 to 10000 nM
O=C1CCCc2c(F)ccc3cc(O)cc(c23)-c2ncc3c(nc(OC[C@@]45CCCN4C[C@H](F)C5)nc3c2F)N2CCCC(CN1)C2 (stereo partly drawn) [Compound 135a, 2^8,3^7-difluoro-2^2-(((2R,7aS)-2-fluorotetrahydro-1H-pyrrolizin-7a(5H)-yl)methoxy)-3^3-hydroxy-8-aza-2(4,7)-pyrido[4,3-d]pyrimidina-1(1,3)-piperidina-3(1,8)-naphthalenacyclononaphan-7-one]		≤ 100 nM
Nc1cc2c(c(Cl)c1F)CCCCC(=O)NCCC1CCCN(C1)c1nc(OC[C@@]34CCCN3C[C@H](F)C4)nc3c(F)c-2ccc13 (stereo partly drawn) [Compound 174a, 3^5-amino-3^3-chloro-2^8,3^4-difluoro-2^2-(((2R,7aS)-2-fluorotetrahydro-1H-pyrrolizin-7a(5H)-yl)methoxy)-9-aza-2(4,7)-quinazolina-1(1,3)-piperidina-3(1,2)-benzenacycloundecaphan-8-one]	100 to 1000 nM	
O=C1CCCCc2ccc3[nH]ncc3c2-c2ncc3c(nc(OC[C@@]45CCCN4C[C@H](F)C5)nc3c2F)N2CCCC(CCN1)C2 (stereo partly drawn) [Compound 167a, 2^8-fluoro-2^2-(((2R,7aS)-2-fluorotetrahydro-1H-pyrrolizin-7a(5H)-yl)methoxy)-1^1H-6-aza-2(7,4)-pyrido[4,3-d]pyrimidina-1(4,5)-indazola-3(1,3)-piperidinacycloundecaphan-7-one]	≤ 100 nM	
